The IC50 is the concentration that inhibits the measured activity by half. A lower IC50 goes with greater potency.

Sequence of c-Kit kinase (P10721 26-976): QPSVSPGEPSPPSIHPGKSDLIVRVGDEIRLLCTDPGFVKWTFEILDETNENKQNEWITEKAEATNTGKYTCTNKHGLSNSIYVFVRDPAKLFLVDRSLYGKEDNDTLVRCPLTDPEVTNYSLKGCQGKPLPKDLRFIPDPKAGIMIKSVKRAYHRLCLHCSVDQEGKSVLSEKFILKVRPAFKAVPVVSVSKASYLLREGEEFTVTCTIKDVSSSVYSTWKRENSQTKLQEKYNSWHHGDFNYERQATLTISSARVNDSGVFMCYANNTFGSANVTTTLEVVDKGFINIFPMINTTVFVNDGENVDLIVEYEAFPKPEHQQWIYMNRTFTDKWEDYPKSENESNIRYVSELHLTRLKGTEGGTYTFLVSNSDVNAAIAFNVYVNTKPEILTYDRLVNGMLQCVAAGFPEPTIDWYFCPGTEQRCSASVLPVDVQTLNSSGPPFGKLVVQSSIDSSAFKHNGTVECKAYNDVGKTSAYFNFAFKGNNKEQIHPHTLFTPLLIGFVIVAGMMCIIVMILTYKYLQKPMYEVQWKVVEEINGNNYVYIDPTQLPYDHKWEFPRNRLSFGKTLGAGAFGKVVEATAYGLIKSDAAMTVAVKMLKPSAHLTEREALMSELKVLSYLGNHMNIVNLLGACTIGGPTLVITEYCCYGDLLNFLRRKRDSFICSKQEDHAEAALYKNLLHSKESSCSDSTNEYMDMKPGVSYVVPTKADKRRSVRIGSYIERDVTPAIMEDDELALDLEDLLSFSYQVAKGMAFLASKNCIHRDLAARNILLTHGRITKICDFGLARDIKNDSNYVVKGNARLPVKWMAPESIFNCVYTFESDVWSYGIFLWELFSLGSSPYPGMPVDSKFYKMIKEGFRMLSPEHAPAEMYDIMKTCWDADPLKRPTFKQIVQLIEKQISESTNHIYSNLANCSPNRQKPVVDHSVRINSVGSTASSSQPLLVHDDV

The target of the assay is c-Kit kinase (Homo sapiens (Human), UniProt P10721). As to the kind of experiment: c-Kit biochemical assay (AlphaScreen kinase activity). The method, then:
Assays for biochemical cell-based activity of c-kit kinase are known in the art, for example, as described in U.S. Pat. Nos. 7,498,342 and 7,846,941, the disclosures of which are hereby incorporated by reference as it relates to such assays. The c-kit (or kinase domain thereof) is an active kinase in AlphaScreen. IC50 values are determined with respect to inhibition of c-Kit kinase activity, where inhibition of phosphorylation of a peptide substrate is measured as a function of compound concentration. Compounds to be tested were dissolved in DMSO to a concentration of 30 mM. These were diluted 30 μl into 130 μl of DMSO (4 mM) and 1 μl was added to an assay plate. These were then serially diluted 1:3 (50 μl to 100 μl DMSO) for a total of 8 points. Plates were prepared such that each kinase reaction is 30 μl in 1× kinase buffer (50 mM HEPES, pH 7.2, 5 mM MgCl2, 5 mM MnCl2, 0.01% NP-40, 0.2% BSA), 5% DMSO and 10 μM ATP. Substrate was 100 nM biotin-(E4Y)3 (Open Source Biotech, Inc.). C-kit kinase was at 0.1 ng per sample. After incubation of the kinase reaction for 1 hour at room temperature, 5 μl of donor beads (Streptavidin coated beads (Perkin Elmer Life Science) final concentration 1 μg/ml) in stop buffer (50 mM EDTA in 1× kinase buffer) was added, the sample was mixed and incubated for 30 minutes at room temperature before adding […] of acceptor beads (PY30 coated beads (Perkin Elmer Life Science) final concentration 1 μg/ml) in stop buffer. The samples were incubated for 60 minutes at room temperature and the signal per well was read on AlphaQuest reader. Phosphorylated substrate results in binding of the PY30 antibody and association of the donor and acceptor beads such that signal correlates with kinase activity. The signal vs. compound concentration was used to determine the IC50.
Compounds were also tested using a similar assay with a 10-fold higher ATP concentration. For these samples, compounds to be tested were dissolved in DMSO to a concentration of 30 mM. These were diluted 30 μl into 130 μl of DMSO (4 mM) and 1 μl was added to an assay plate. These were then serially diluted 1:3 (50 μl to 100 μl DMSO) for a total of 8 points. Plates were prepared such that each kinase reaction is 30 μl in 1× kinase buffer (25 mM HEPES, pH 7.5, 2 mM MgCl2, 2 mM MnCl2, 0.01% […], 1 mM DTT, and 0.001% BSA), 5% DMSO and 100 μM ATP. Substrate was 30 nM biotin-(E4Y)10 (Upstate Biotech, Cat#12-440). C-kit kinase was at 1 ng per sample. After incubation of the kinase reaction for 1 hour at room temperature, 5 μl of donor beads (Streptavidin coated beads (Perkin Elmer Life Science) final concentration 10 μg/ml) in stop buffer (25 mM HEPES pH 7.5, 100 mM EDTA, 0.3% BSA) was added, the sample was mixed and incubated for 30 minutes at room temperature before adding 5 μl of acceptor beads (PY30 coated beads (Perkin Elmer Life Science) final concentration 10 μg/ml) in stop buffer. The samples were incubated for 60 minutes at room temperature and the signal per well was read on AlphaQuest or Envision reader (Perkin Elmer Life Science). Phosphorylated substrate results in binding of the PY30 antibody and association of the donor and acceptor beads such that signal correlates with kinase activity. The signal vs. compound concentration was used to determine the IC50.
The c-kit enzyme used in the above assay was either obtained from Cell Signaling Technology (Cat. #7754) or was prepared as follows: A plasmid encoding kit (DNA and encoded protein sequences shown below) was engineered using common polymerase chain reaction (PCR) methods. Complementary DNA cloned from various human tissues were purchased from Invitrogen, and these were used as substrates in the PCR reactions. Specific custom synthetic oligonucleotide primers were designed to initiate the PCR product, and also to provide the appropriate restriction enzyme cleavage sites for ligation with the plasmids. […]
The molecule `COc1cccc(-c2[nH]c(C3CCN(c4ncnc5[nH]c(-c6cnn(C(F)F)c6)cc45)CC3)nc2C)c1` [P-3114, 6-[1-(difluoromethyl)pyrazol-4-yl]-4-[4-[5-(3-methoxyphenyl)-4-methyl-1H-imidazol-2-yl]-1-piperidyl]-7H-pyrrolo[2,3-d]pyrimidine] returned an IC50 of 0.0001 to 1 µM.
Then `Cc1nc(C2CCN(c3ncnc4[nH]c(-c5cnn(C(F)F)c5)cc34)CC2)[nH]c1-c1ccc(OC(F)F)cc1` [P-3115, 4-[4-[5-[4-(difluoromethoxy)phenyl]-4-methyl-1H-imidazol-2-yl]-1-piperidyl]-6-[1-(difluoromethyl)pyrazol-4-yl]-7H-pyrrolo[2,3-d]pyrimidine], with 0.0001 to 1 µM; and `Cc1nc(C2CCN(c3ncnc4[nH]c(-c5cnn(C(F)F)c5)cc34)CC2)[nH]c1-c1ccc(OC(F)(F)F)cc1` [P-3116, 6-[1-(difluoromethyl)pyrazol-4-yl]-4-[4-[4-methyl-5-[4-(trifluoromethoxy)phenyl]-1H-imidazol-2-yl]-1-piperidyl]-7H-pyrrolo[2,3-d]pyrimidine], with 0.0001 to 1 µM; and `COc1cc(-c2cc3c(N4CCC(c5nc(C)c(-c6ccc(C)s6)[nH]5)CC4)ncnc3[nH]2)ccn1` [P-3117, 6-(2-methoxy-4-pyridyl)-4-[4-[4-methyl-5-(5-methyl-2-thienyl)-1H-imidazol-2-yl]-1-piperidyl]-7H-pyrrolo[2,3-d]pyrimidine], with 0.0001 to 1 µM.
On to `Cc1ccc(-c2[nH]c(C3CCN(c4ncnc5[nH]c(-c6ccc(F)cc6)cc45)CC3)nc2C)s1` [P-3118, 6-(4-fluorophenyl)-4-[4-[4-methyl-5-(5-methyl-2-thienyl)-1H-imidazol-2-yl]-1-piperidyl]-7H-pyrrolo[2,3-d]pyrimidine], for which the IC50 fell in the range of 0.0001 to 1 µM.
Then `Cc1nc(C2CCN(c3ncnc4[nH]c(-c5ccc(F)cc5)cc34)CC2)[nH]c1-c1ccc(Cl)s1` [P-3119, 4-[4-[5-(5-chloro-2-thienyl)-4-methyl-1H-imidazol-2-yl]-1-piperidyl]-6-(4-fluorophenyl)-7H-pyrrolo[2,3-d]pyrimidine], with 1 to 10 µM.
Then `Cc1cc2c(N3CCC(c4nc(C)c(-c5ccc6c(c5)OCO6)[nH]4)CC3)ncnc2[nH]1` [P-3120, 4-[4-[5-(1,3-benzodioxol-5-yl)-4-methyl-1H-imidazol-2-yl]-1-piperidyl]-6-methyl-7H-pyrrolo[2,3-d]pyrimidine], with 1 to 10 µM; and `Cc1cc2c(N3CCC(c4nc(C)c(-c5ccc6c(c5)OCCO6)[nH]4)CC3)ncnc2[nH]1` [P-3121, 4-[4-[5-(2,3-dihydro-1,4-benzodioxin-6-yl)-4-methyl-1H-imidazol-2-yl]-1-piperidyl]-6-methyl-7H-pyrrolo[2,3-d]pyrimidine], with 1 to 10 µM.
Then `Cc1nn(C)cc1-c1cc2c(N3CCC(c4nc(C)c(-c5ccc(OC(F)(F)F)cc5)[nH]4)CC3)ncnc2[nH]1` [P-3122, 6-(1,3-dimethylpyrazol-4-yl)-4-[4-[4-methyl-5-[4-(trifluoromethoxy)phenyl]-1H-imidazol-2-yl]-1-piperidyl]-7H-pyrrolo[2,3-d]pyrimidine], with 0.0001 to 1 µM; and `COc1cccc(-c2[nH]c(C3CCN(c4ncnc5[nH]c(-c6ccnc(OC)c6)cc45)CC3)nc2C(F)(F)F)c1` [P-3123, 4-[4-[5-(3-methoxyphenyl)-4-(trifluoromethyl)-1H-imidazol-2-yl]-1-piperidyl]-6-(2-methoxy-4-pyridyl)-7H-pyrrolo[2,3-d]pyrimidine], with 0.0001 to 1 µM; and `COc1cccc(-c2[nH]c(C3CCN(c4ncnc5[nH]c(-c6ccc(C#N)cc6)cc45)CC3)nc2C(F)(F)F)c1` [P-3124, 4-[4-[4-[5-(3-methoxyphenyl)-4-(trifluoromethyl)-1H-imidazol-2-yl]-1-piperidyl]-7H-pyrrolo[2,3-d]pyrimidin-6-yl]benzonitrile], with 0.0001 to 1 µM.
As for `CCOc1ccc(-c2[nH]c(C3CCN(c4ncnc5[nH]c(C)cc45)CC3)nc2C)cc1C` [P-3125, 4-[4-[5-(4-ethoxy-3-methyl-phenyl)-4-methyl-1H-imidazol-2-yl]-1-piperidyl]-6-methyl-7H-pyrrolo[2,3-d]pyrimidine], the IC50 was 1 to 10 µM.
`CCOc1cc(-c2[nH]c(C3CCN(c4ncnc5[nH]c(C)cc45)CC3)nc2C)ccc1C` [P-3126, 4-[4-[5-(3-ethoxy-4-methyl-phenyl)-4-methyl-1H-imidazol-2-yl]-1-piperidyl]-6-methyl-7H-pyrrolo[2,3-d]pyrimidine] yielded an IC50 of 0.0001 to 1 µM.
The value for `Cc1cc2c(N3CCC(c4nc(C)c(-c5ccc6c(c5)OC(F)(F)O6)[nH]4)CC3)ncnc2[nH]1` [P-3127, 4-[4-[5-(2,2-difluoro-1,3-benzodioxol-5-yl)-4-methyl-1H-imidazol-2-yl]-1-piperidyl]-6-methyl-7H-pyrrolo[2,3-d]pyrimidine] was 1 to 10 µM.
Regarding `COc1ccc(-c2[nH]c(C3CCN(c4ncnc5[nH]c(C)cc45)CC3)nc2C)cc1C` [P-3128, 4-[4-[5-(4-methoxy-3-methyl-phenyl)-4-methyl-1H-imidazol-2-yl]-1-piperidyl]-6-methyl-7H-pyrrolo[2,3-d]pyrimidine], the IC50 was in the range of 1 to 10 µM.
As for `COc1cc(-c2[nH]c(C3CCN(c4ncnc5[nH]c(C)cc45)CC3)nc2C)ccc1C` [P-3129, 4-[4-[5-(3-methoxy-4-methyl-phenyl)-4-methyl-1H-imidazol-2-yl]-1-piperidyl]-6-methyl-7H-pyrrolo[2,3-d]pyrimidine], the IC50 lay in the range of 1 to 10 µM.
Then `COc1ccc(-c2[nH]c(C3CCN(c4ncnc5[nH]c(C)cc45)CC3)nc2C)cc1` [P-3130, 4-[4-[5-(4-methoxyphenyl)-4-methyl-1H-imidazol-2-yl]-1-piperidyl]-6-methyl-7H-pyrrolo[2,3-d]pyrimidine], with 1 to 10 µM.
Then `COc1cccc(-c2[nH]c(C3CCN(c4ncnc5[nH]c(C)cc45)CC3)nc2C)c1` [P-3131, 4-[4-[5-(3-methoxyphenyl)-4-methyl-1H-imidazol-2-yl]-1-piperidyl]-6-methyl-7H-pyrrolo[2,3-d]pyrimidine], with 1 to 10 µM; and `Cc1nc(C2CCN(c3ncnc4[nH]c(-c5ccc(C#N)cc5)cc34)CC2)[nH]c1-c1ccc2c(c1)OCCO2` [P-3132, 4-[4-[4-[5-(2,3-dihydro-1,4-benzodioxin-6-yl)-4-methyl-1H-imidazol-2-yl]-1-piperidyl]-7H-pyrrolo[2,3-d]pyrimidin-6-yl]benzonitrile], with 0.0001 to 1 µM.
Then `Cc1nc(C2CCN(c3ncnc4[nH]c(-c5cnn(C(F)F)c5)cc34)CC2)[nH]c1-c1ccc2c(c1)OCCO2` [P-3133, 6-[1-(difluoromethyl)pyrazol-4-yl]-4-[4-[5-(2,3-dihydro-1,4-benzodioxin-6-yl)-4-methyl-1H-imidazol-2-yl]-1-piperidyl]-7H-pyrrolo[2,3-d]pyrimidine], with 0.0001 to 1 µM.
For `COc1cc(-c2cc3c(N4CCC(c5nc(C(F)(F)F)c(-c6ccc(C)cc6)[nH]5)CC4)ncnc3[nH]2)ccn1` [P-3134, 6-(2-methoxy-4-pyridyl)-4-[4-[5-(p-tolyl)-4-(trifluoromethyl)-1H-imidazol-2-yl]-1-piperidyl]-7H-pyrrolo[2,3-d]pyrimidine], the IC50 was 0.0001 to 1 µM.
The value for `Cc1ccc(-c2[nH]c(C3CCN(c4ncnc5[nH]c(-c6ccc(F)cc6)cc45)CC3)nc2C(F)(F)F)cc1` [P-3135, 6-(4-fluorophenyl)-4-[4-[5-(p-tolyl)-4-(trifluoromethyl)-1H-imidazol-2-yl]-1-piperidyl]-7H-pyrrolo[2,3-d]pyrimidine] was 0.0001 to 1 µM.

The record behind these values is patent publication US9771369B2, “Compounds and methods for kinase modulation, and indications therefor” (Plexxikon Inc., priority 2014, dated 2017).
